From PubChem BioAssay (NCI)
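Protocol summary: plate cells (96-well), add compound at 5 concentrations, incubate 48 h, interpolate endpoints linearly. At the GI50, growth is halved. TGI: concentration producing complete growth inhibition.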

Legend:
Experiment in all cases: NCI-60 cell line screen, 48 h
RPMI-8226 leukemia = tested on: RPMI-8226 leukemia
EKVX NSCLC = tested on: EKVX NSCLC
IGROV1 ovarian = tested on: IGROV1 ovarian
DU-145 prostate = tested on: DU-145 prostate
UACC-257 melanoma = tested on: UACC-257 melanoma
HL-60(TB) leukemia = tested on: HL-60(TB) leukemia
HCT-15 colon = tested on: HCT-15 colon
NCI-H23 lung = tested on: NCI-H23 lung
MDA-MB-435 = tested on: MDA-MB-435
SK-OV-3 ovarian = tested on: SK-OV-3 ovarian

Structure (SMILES)	TGI (RPMI-8226 leukemia)	TGI (EKVX NSCLC)	TGI (IGROV1 ovarian)	TGI (DU-145 prostate)	TGI (UACC-257 melanoma)	TGI (HL-60(TB) leukemia)	TGI (HCT-15 colon)	TGI (NCI-H23 lung)	TGI (MDA-MB-435)	TGI (SK-OV-3 ovarian)	GI50 (EKVX NSCLC)	GI50 (IGROV1 ovarian)	GI50 (DU-145 prostate)	GI50 (UACC-257 melanoma)	GI50 (HCT-15 colon)	GI50 (NCI-H23 lung)	GI50 (MDA-MB-435)	GI50 (SK-OV-3 ovarian)	GI50 (HL-60(TB) leukemia)	GI50 (RPMI-8226 leukemia)
NC(=O)c1cccc([C@@H]2O[C@H](CO)[C@@H](O)[C@H]2O)c1	29.8 µM	> 100 µM	85.6 µM	> 50.6 µM	> 100 µM	10.2 µM	11.7 µM	35.4 µM	> 90.3 µM	35.7 µM	–	–	–	–	–	–	–	–	–	–
O=C1OC(OCC#CCOC2OC(=O)C(Cl)=C2Cl)C(Cl)=C1Cl (configuration not stated)	11.9 µM	40.1 µM	29.9 µM	38.2 µM	32.3 µM	–	27.3 µM	40.9 µM	27.2 µM	–	–	–	–	–	–	–	–	–	–	–
ClCc1ccc(Cn2cnc3c(Cl)nc(Cl)nc32)cc1	–	31.8 µM	30.4 µM	17.8 µM	33.5 µM	–	3.77 µM	23.2 µM	25.1 µM	29.6 µM	17.3 µM	15.3 µM	5.69 µM	16.3 µM	1.86 µM	7.62 µM	12.6 µM	13.3 µM	–	–
Clc1nc(Cl)c2ncn(Cc3ccc(Cn4cnc5c(Cl)nc(Cl)nc54)cc3)c2n1	7.07 µM	25 µM	20.6 µM	10 µM	30.5 µM	4.4 µM	19.3 µM	22.8 µM	33.6 µM	> 100 µM	–	6.08 µM	–	4.87 µM	6.24 µM	2.02 µM	14.2 µM	> 100 µM	0.0475 µM	–
Cc1cc(OCc2nnc3n2N=C(c2ccc(Cl)cc2Cl)CS3)ccc1Cl	> 100 µM	81.2 µM	> 100 µM	> 100 µM	93.2 µM	> 100 µM	> 100 µM	> 100 µM	> 100 µM	> 100 µM	6.89 µM	52.3 µM	69.7 µM	42.1 µM	39.4 µM	61 µM	26.5 µM	> 100 µM	45.9 µM	40.6 µM
CN1C(Cl)=NS(=O)(=O)c2ccccc21	–	> 100 µM	> 100 µM	> 100 µM	> 100 µM	> 100 µM	> 100 µM	> 100 µM	> 100 µM	> 100 µM	–	–	–	–	–	–	–	–	–	–
NCCSCCc1ccccc1	> 100 µM	> 100 µM	> 100 µM	> 100 µM	> 100 µM	–	> 100 µM	> 100 µM	> 100 µM	> 100 µM	–	–	–	–	–	–	–	–	–	–
CNC(=O)OCC1C2=C(C(=O)C(C)=C(N)C2=O)N2CC3C(N3C)C12OC (configuration not stated)	> 100 µM	> 100 µM	26.1 µM	55 µM	70.9 µM	21.1 µM	27 µM	16.3 µM	> 100 µM	> 100 µM	–	–	–	–	–	–	–	–	–	–
N#Cc1cc(S(=O)(=O)Nc2nc3ccccc3s2)c(SCc2ccccc2)cc1Cl	> 100 µM	34.5 µM	46.6 µM	58.6 µM	35.2 µM	> 100 µM	66.4 µM	57.7 µM	49.5 µM	–	17.1 µM	18.1 µM	24.4 µM	15.4 µM	28.5 µM	22.4 µM	23.8 µM	–	51.5 µM	27.9 µM
